The test system of one data set is hairless mice. The method, then: Topical application was daily 10 minutes prior to UVB radiation. UVB dose was 200 mJ/cm2 during 15 minutes. UVB lamp has spectrum distribution of 290-310 nm at 80% below 310 nm at 20%.
Same protocol as in example 13 was used for this study.

For data set [1], the system named is cultured rat cortical neurons. As to the kind of experiment: Hemoglobin toxicity in cultured rat cortical neurons (MTT). The following applies: hemoglobin 10 uM, 24 hours. The data set is classed as cell-based. The protocol: E-TOPS is neuroprotective in a model of hemorrhagic transformation in stroke. Primary neuronal cultures were made from forebrains of fetal rat pups (embryonic day 15). The cells were dispersed by repeated mechanical trituration in neuronal culture medium (MEM Eagle (Sigma, M4526), supplemented with glutamine (2 mM), penicilin-streptomycine (50 Units/ml-0.05mg/ml), heat-inactivated horse serum (10%), fetal bovine serum (10%), glucose (0.5% or 28 mM). Following centrifugation (900 g; 5 min), the cells were placed onto poly-L-lysine-coated 96 well plates at a density of […]. Hemoglobin in saline was added at 10 uM final concentration and ETOPS were added at 10 uM, 1 uM, and 0.1 uM final concentration. 24 hours after incubation neuronal viability was quantitatively determined using the colorimetric MTT assay. MTT was added to each well such that the final concentration of the dye was 0.15 mg/ml. Plates were then returned to the incubator for 1 hour at which time unincorporated MTT was removed, and the plates allowed to air dry. The purple formazan product present in viable cells was then dissolved by adding acidified isopropanol (with 0.1 N HCl in) and the absorbance intensity (540 nm) was measured using a 96 well plate reader. % Control=(Test A540/Mean Control)×100%.

Another data set has as its system Rhino mouse. Description: Anti-wrinkle effect in Rhino mouse exposed to UVB. Format: in vivo. The settings on record: compared with Retin-A. The method, then:
To determine the advantage of CGN compared to commercially available topical therapies, BE-TOPS, Retin-A, and a placebo were administered to the skin of mice exposed to alternate days of UVB radiation.

Data set [2] is described as follows: Inhibition of peroxynitrite-dependent nitration of HPA. The following applies: 1 mM HPA, 1 mM peroxynitrite, pH 6.5. The data set is classed as biochemical. The method, then: Peroxynitrite was made by a procedure described previously. Solution of 1 mM 4-hydroxyphenylacetic acid (HPA, Sigma) were made in 100 mM sodium phosphate at pH 6.5. […] Peroxynitrite was added at a final concentration of 1 mM to start the nitration. […] The nitration was followed spectrophotometrically at 405 nm. The concentration of 4-hydroxy-3-nitrophenylacetate was determined spectrophotometrically (430=4400 M^−1 cm^−1) after the pH of reaction mixtures were increased to 10-11 with NaOH.

In data set [3] the test system is cultured rat cortical neurons. As to the kind of experiment: SIN-1 (peroxynitrite generator) toxicity in cultured rat cortical neurons (MTT). Format: cell-based. The settings on record: SIN-1 1 mM, compound added 15 minutes prior. The method, then: Primary neuronal cultures were made from forebrains of fetal rat pups (embryonic day 15). The cells were dispersed by repeated mechanical trituration in neuronal culture medium (MEM Eagle (Sigma, M4526), supplemented with glutamine (2 mM), penicilin-streptomycine (50 Units/ml-0.05 mg/ml), heat-inactivated horse serum (10%), fetal bovine serum (10%), glucose (0.5% or 28 mM). Following centrifugation (900 g; 5 min), the cells were placed onto poly-L-lysine-coated 96 well plates at a density of […]. Cytotoxicity was induced in the cells according to a published procedure (Carroll et al 2000). SIN-1 (3-morpholinosydnonimine, Sigma), a PN generator, was dissolved in 50 mM phosphate (pH 5.0) just prior to use, and added to each well to give the final concentration of 1 mM. […] Neuronal viability was quantitatively determined using the colorimetric MTT assay. MTT was added to each well such that the final concentration of the dye was 0.15 mg/ml. Plates were then returned to the incubator for 1 hour at which time unincorporated MTT was removed, and the plates allowed to air dry. The purple formazan product present in viable cells was then dissolved by adding acidified isopropanol (with 0.1 N HCl in) and the absorbance intensity (540 nm) was measured using a 96 well plate reader. % Control=(Test A540/Mean Control)×100%.

Data set [4] can be described thus: Metabolism and excretion after topical application (EPR of urine and plasma). Format: in vivo, mouse. The settings on record: after 6 hours; 10 day daily topical application.
A short description of data set [5]: Water/octanol partition measured by EPR. Format: physicochemical. The settings on record: 15 minutes, TOPS = presumed product after NaOH hydrolysis of DE-TOPS. The method, then: (§1) After 15 minutes, a 40 μl sample of water or oil was taken for EPR spectral analysis. […] The solution was neutralized with hydrochloric acid and added to 1 ml of water and 2 ml of octanol. The mixture was allowed to partition, and after 15 minutes, a 40 μl sample of water or oil was taken for EPR spectral analysis. EPR spectral were taken using a Varian E9 spectrophotometer. Sweep width was 100 G, frequency was 9.535 GHz, microwave power was […] and the modulation frequency was 100 Hz.

A short description of data set [6]: S-band EPR imaging of penetration and compartmentalization in human skin. The data set is classed as in vivo. The settings on record: human volunteer forearm, 3 μL 100 mM in DMSO, topical, by eight hours. The protocol: Preliminary S-band EPR spectroscopy and imaging experiments using DETOPS were performed on the skin of a human volunteer. […] Five minutes later, when the deposited solution dried, a specially designed positioning holder with a 7 mm diameter well and bottom disk that locked into a well in the resonator cap was attached to the skin to fix this region of skin to the surface resonator See, “In vivo EPR Imaging of a Distribution and Metabolism of Nitroxide Radicals in Human Skin,” He et al., J. of Magnetic Resonance 148, 155-164 (2001). EPR and EPRI measurements were then started. Measurements on the volunteer were performed for 15 to 20 minutes periods after which there were 30-minute rest periods in which the volunteer removed the arm from the resonator and the magnet. This holder fixed the skin positioning and assured a constant filling factor of the loaded resonator. The positioning holder was left attached to the arm for the entire series of measurements lasting up to 8 hours.
Referring to FIG. 23, a color-coded image of CNO penetration and compartmentalization in human skin is shown. […] The measurements were performed using S-band (2.2 GHz) EPR imaging system with a specially designed surface resonator as described in He et al., J. of Magnetic Resonance 148, 155-164 (2001). The dotted line marks the surface of the skin. […]

Data set [7] can be described thus: Chemical hydrolysis of esters by NaOH or KOH, followed by EPR. Format: physicochemical. The following applies: sodium hydroxide (NaOH), aqueous, EPR pre- and post-hydrolysis. The protocol:
as §1
20 mg of ^14N-^15N-TE-TOPS was mixed in 1 ml of 10 mM KOH and allowed to incubate overnight at room temperature. The solution was neutralized with hydrochloric acid. EPR spectral were taken using a Varian E9 spectrophotometer. Sweep width was 100 G, frequency was 9.535 GHz, microwave power was […] and the modulation frequency was 100 Hz.

Data set [8] in a line: Acute toxicity LD50 / survival rate in mice. Format: in vivo. The following applies: mouse, in vivo. From the text: (§2) As noted above, the practical, clinical application of unbound, small molecule nitroxides has been limited by the reduced activity in vivo and comparatively short in vivo half-life. The result of the reduced in vivo half-life is the need to administer a larger dose to achieve the same therapeutic or diagnostic effect.

In a further data set the test system is mice. Description: Acute toxicity LD50 / survival rate in mice. The following applies: mice, dosage of 2.0 mmol/kg. Format: in vivo.
Excerpt: as §2

For data set [9] the following is noted: gold standard, previously shown; cited from earlier work.
The nature of data set [10]: In vivo plasma half-life by EPR, co-administration of 14N E-TOPS and 15N Tempol. The protocol:
Plasma half-life is measured by collecting the spectrum each minute for 60 to 90 minutes.

For a further data set, the system named is human Y-79 cells. As to the kind of experiment: TNF-α induced apoptosis of Y-79 cells (annexin V flow cytometry). The data set is classed as cell-based. The settings on record: Y-79 cell line, E-TOPS 100 μg/ml, TNF-α 5.0 ng/ml, 6, 24 and 48 hours. The protocol: The UV light induced apoptosis may be measured by a model in which apoptosis is induced by exposure to tumor necrosis factor alpha (TNF-α). […] Cultured human Y-79 cells were maintained at pH 7.4 in culture flasks in a mixture of amphotericin/penicillin/streptomycin treated (1% v/v) RPMI 1640 media with L-glutamine and 10% fetal bovine serum in an incubator under 10%-CO2/90%-air brood conditions at 37 degrees Celsius and 20% humidity. […] From this stock solution, 10 μl was added to 1 ml of the cell suspension solution so that the final concentration of ETOPS was 100 μg/ml of ETOPS. Human TNF-μ(10 μg/1 ml) was used to prepare serial media dilutions to obtain TNF-α concentrations of 5.0 ng/ml. Cell densities and viability were determined by trypan blue exclusion assay on a Zeiss inverted microscope to ensure cell concentrations prior to cytometric assaying. […]
Flow cytometric methods were employed to take advantage of annexin V's reversible and calcium-dependent binding to negatively charged phosphatidylserine (PS) residues in a 1:50 annexin to PS ratio. […] Total samplings averaged 5000 cell events counted out of sample populations averaging well over 1.0×10^6 cells/ml with statistics and regression analysis given for each set of sample quadrants using CellQuest softvare. […]
For orientation: A flow cytometer gives signals particle by particle.

The LD50 is the dose expected to kill half of the subjects tested. By half-life is commonly meant the time needed for the level to fall by half in the phase considered.

Some results are limits rather than exact numbers.

Take `CCOC(=O)CC(C(=O)OCC)=C1CC(C)(C)N([O])C(C)(C)C1` [DE-TOPS, Di-ethyl-2,2,6,6-tetramethyl-1-oxy-4-piperidylidene-succinate]: the “skin thickening induced by UVB (histopathology)” value in the data set on hairless mice (100 mM in petroleum base, topical daily 10 minutes prior to UVB, 11 days, 200 mJ/cm2) was “dramatically reduces skin thickening”. Moreover, in the data set with hairless mice (applying pre and post radiation in mice), the “UVB light induced skin thickening, hemorrhage, inflammation” value is “reduces UVB light induced skin thickening, hemorrhage, inflammation”. Further, the “UVB induced skin lesion, chronic” value in the data set on hairless mice (same mice kept for 4 month, applied 2 hour before UVB radiation) is “inhibited”. Moreover, the “inhibition of hemoglobin-induced toxicity of cortical neurons” value (shortened to “inhibition … of cortical neurons”) in data set [1] was “dose dependent inhibition”. Besides, the “UVB sensitivity of treated skin” value in the data set with Rhino mouse is “not UVB sensitive”. The “inhibition of nitration of HPA by peroxynitrite” value (“inhibition of nitration of HPA” below) in data set [2] is given as “inhibited”. Further, the “inhibition of peroxynitrite-induced (SIN-1) toxicity on cortical neurons” value (“inhibition of peroxynitrite-induced” below) in data set [3] is recorded as “dose dependent inhibition”. Further, the “EPR signal in urine compared with plasma” value in data set [4] is given as “stronger EPR signal”. In addition, the “partition coefficient (LogP)” value in [5] was found to be 1.7. Further, the “distribution in skin layers compared to tempone (1-D EPR spatial image)” value in [6] is “enhanced visual distribution throughout the dermis and epidermis”. Also, the “hydrolysis of DE-TOPS to TOPS” value in data set [7] is “near complete conversion”.

As for `CC1(C)CC(=C(CC(=O)O)C(=O)O)CC(C)(C)N1[O]` [TOPS, 2,2,6,6-tetramethyl-1-oxyl-piperidinene-4-succinate], the “inhibition … of cortical neurons” value in data set [1] was “dose dependent inhibition”. The “inhibition of nitration of HPA” value in data set [2] is given as “inhibited”. The “inhibition of peroxynitrite-induced” value in data set [3] was “dose dependent inhibition”. The “partition coefficient (LogP)” value in data set [5] was −0.9.

`CC1(C)CC(O)CC(C)(C)N1[O]` [Tempol, 4-hydroxy-2,2,6,6-tetramethylpiperidine-1-oxyl] yielded a median lethal dose (LD50) in data set [8] of 375 mg/kg. Besides, the survival rate entry with mice is recorded as “zero survival rate”. For the same molecule, the “prevention of nitration of HPA by peroxynitrite in vitro” value in data set [9] was “prevent the nitration”. Moreover, in [10] (mouse, in vivo, ip, 80 mg/kg), the half-life is over 40 min.

“monoethyl-2,2,6,6-tetramethyl-1-oxy-4-piperidylidene-succinate [E-TOPS]”: the “inhibition … of cortical neurons” value in [1] was “dose dependent inhibition”. Also, the neuronal viability entry in [1] (ETOPS at 10 uM, 1 uM, 0.1 uM) is on record as “increased neuronal viability”. The “apoptosis induced by TNF-α” value in the data set with human Y-79 cells is “reduces apoptosis”. Moreover, in [2], the “inhibition of nitration of HPA” value was “inhibited”. In addition, the “inhibition of peroxynitrite-induced” value in [3] was “dose dependent inhibition”. For the same molecule, the “in vivo half-life compared to Tempol” value in data set [10] (intravenous, intramuscular, oral and intraperitoneal administration at 200 mg/kg) was “increased in vivo half-life compared to Tempol”. The “in vivo plasma half-life compared to Tempol” value in data set [10] (mice, administered orally, 125 mg/kg E-TOPS and 80 mg/kg Tempol) is “extended”; in [10] (mice, co-administrated intravenously), “extended”; in data set [10] (mice, intramuscular co-administration), “dramatically extended over Tempol for at least 60 minutes”. Moreover, the “time with substantially higher activity than Tempol in plasma” value in data set [10] (mice, i.p., 125 mg/kg E-TOPS co-administered with Tempol) is listed as “at least 80 minutes”.

(Values after patent US7314633B2, “Carboxylate-gated-nitroxide (CGN) compounds and compositions and methods of use thereof” (SynZyme Technologies LLC, priority 2001, dated 2008).)
